Laboratory results reported in patent US20230285323A1, “ESKETAMINE-SUSPENSION-TTS” (LTS LOHMANN THERAPIE-SYSTEME AG, priority 2020, published 2023).

Assay: Saturation concentration (solubility) of ketamine in silicone pressure sensitive adhesive

CNC1(c2ccccc2Cl)CCCCC1=O (racemic) [ketamine, (RS)-(±)-2-(2-chlorophenyl)-2-(methylamino)cyclohexan-1-one]
Solubility of ketamine in the silicone pressure sensitive adhesive: not more than 1 wt.-%
